Legend:
[1] = cited from earlier work
dogs = details: dog, in vivo, iv
humans = details: human, in vivo
mice = details: mouse, in vivo, iv
[2] = Stability in acidic and basic aqueous media (proton NMR); assay type: physicochemical; details: for stability in aqueous solution: pH 1.5 to 9.0
Method: The stability of 2,2′-dithio-bis-ethane sulfonate at room temperature was determined at pH ranges of 1.5 to 9.0.
The following experiment was performed to determine the stability of 2,2′-dithio-bis-ethane sulfonate in acidic and basic aqueous media. In a typical experiment, 50 mg of 2,2′-dithio-bis-ethane sulfonate (as produced by using the above described method) was dissolved in one ml of water and the pH was adjusted to 1.5, 2.0, 3.0, 4.0, 5.0 and 6.0 by adding 1 N hydrochloric acid in water or the pH was adjusted to 8.0 and 9.0 by adding 1 N sodium hydroxide in water. The reaction mixture was stirred for 24 hours at room temperature, the water was removed at reduced pressure, dissolved in spectral grade D2O, and the proton NMR spectrum was recorded.
The stability of 2,2′-dithio-bis-ethane sulfonate at pH 1.5 was further studied by heating the reaction mixture to 100 degrees Celsius for 10 minutes.

Row | Structure (SMILES) | accepted oral LD50 [1] [mg/kg] | dose administered intravenously with no adverse effects (dogs) [mg/kg] | dose administered with no adverse effects (humans) | dose administered intravenously with no adverse effects (mice) [mg/kg] | proton NMR spectrum after stirring in aqueous solution ([2]; 50 mg in one ml water, pH 1.5, 2.0, 3.0, 4.0, 5.0, 6.0, 8.0 and 9.0, 24 hours, room temperature) | proton NMR spectrum after heating ([2]; pH 1.5, 100 degrees Celsius for 10 minutes) | stability in aqueous solution ([2]; room temperature, listed as 2,2′-Dithio-bis-ethane sulfonate) | stability in aqueous solution ([2]; room temperature, listed as 2,2′-dithio-bis-ethane sulfonate)
1 | [Cl-].[Na+] [common table salt] | 3750 | – | – | – | – | – | – | –
2 | O=S(=O)([O-])CCSSCCS(=O)(=O)[O-].[Na+].[Na+] [Dimesna, disodium 2,2′-dithiobis ethane sulfonate] | – | > 3750 | exceeding 25 g/m^2 | > 3750 | no additional peaks were observed | No change in the proton spectrum | very stable | stable

— patent US20040014730A1, “Formulations and methods of reducing toxicity of anti-infective agents” (priority 2002, published 2004)
